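Cultured in 96-well plates, cells were exposed to test compound for 48 hours across five concentrations. TGI marks complete inhibition of growth.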
Assays:
Experiment in all cases: growth of human tumour cells (NCI), 48 h
786-0 renal = test system: 786-0 renal
A498 renal = test system: A498 renal
A549 NSCLC = test system: A549 NSCLC
ACHN renal = test system: ACHN renal
CAKI-1 renal = test system: CAKI-1 renal
CCRF-CEM leukemia = test system: CCRF-CEM leukemia
COLO 205 colon = test system: COLO 205 colon
DLD-1 colon = test system: DLD-1 colon
DMS 114 small cell lung = test system: DMS 114 small cell lung
DMS 273 small cell lung = test system: DMS 273 small cell lung
EKVX NSCLC = test system: EKVX NSCLC
HCT-116 colon = test system: HCT-116 colon
HCT-15 colon = test system: HCT-15 colon
HOP-62 NSCLC = test system: HOP-62 NSCLC
HOP-92 NSCLC = test system: HOP-92 NSCLC
HT29 colon = test system: HT29 colon
IGROV1 ovarian = test system: IGROV1 ovarian
K-562 leukemia = test system: K-562 leukemia
KM12 colon = test system: KM12 colon
KM20L2 colon = test system: KM20L2 colon
LXFL 529 NSCLC = test system: LXFL 529 NSCLC
M14 melanoma = test system: M14 melanoma
M19-MEL melanoma = test system: M19-MEL melanoma
MALME-3M melanoma = test system: MALME-3M melanoma
MOLT-4 leukemia = test system: MOLT-4 leukemia
NCI-H226 lung = test system: NCI-H226 lung
NCI-H23 lung = test system: NCI-H23 lung
NCI-H460 lung = test system: NCI-H460 lung
NCI-H522 lung = test system: NCI-H522 lung
OVCAR-3 ovarian = test system: OVCAR-3 ovarian
OVCAR-5 ovarian = test system: OVCAR-5 ovarian
OVCAR-8 ovarian = test system: OVCAR-8 ovarian
RPMI-8226 leukemia = test system: RPMI-8226 leukemia
SF-268 CNS = test system: SF-268 CNS
SF-539 CNS = test system: SF-539 CNS
SK-MEL-2 melanoma = test system: SK-MEL-2 melanoma
SK-MEL-5 melanoma = test system: SK-MEL-5 melanoma
SK-OV-3 ovarian = test system: SK-OV-3 ovarian
SN12C renal = test system: SN12C renal
SNB-19 CNS = test system: SNB-19 CNS
SNB-75 CNS = test system: SNB-75 CNS
SNB-78 CNS = test system: SNB-78 CNS
SR leukemia = test system: SR leukemia
SW-620 colon = test system: SW-620 colon
TK-10 renal = test system: TK-10 renal
U251 CNS = test system: U251 CNS
UACC-62 melanoma = test system: UACC-62 melanoma
UO-31 renal = test system: UO-31 renal
XF 498 CNS = test system: XF 498 CNS

Measured: TGI

COc1ccc(OC)c(NC(=O)C2=C(C)NC(C)=C(C(=O)Nc3cc(OC)ccc3OC)C2c2ccco2)c1
> 100 µM: all assays above

Reference: PubChem BioAssay (NCI)
